Source: patent US20260285863A1, “COMPOUNDS CAPABLE OF MODULATING GPR65” (Pathios Therapeutics Limited, priority 2023, published 2026)

Molecular target: T1, human recombinant GPR65 (Homo sapiens, UniProt Q8IYL9)
T1 construct: host or cells: 1321N1 human astrocytoma cells (1321N1-hrGPR65)
Assay: Human GPR65 cAMP HTRF antagonist assay
Type: cell-based
Conditions: 1321N1-hrGPR65 cells, assay pH 7.2, cAMP HTRF; read-out: hGPR65 IC50
Source text: The “Human GPR65 cyclic adenosine monophosphate (cAMP) Homogeneous Time Resolved Fluorescence (HTRF) antagonist assay”, or simply “cAMP assay”, as described in the accompanying examples, can be used to measure the potency of GPR65 modulators, which is expressed as the concentration of compound required to reduce the increase in cAMP concentration upon GPR65 activation by 50% (i.e. an IC50).
Human GPR65 Cyclic Adenosine Monophosphate (cAMP) Homogeneous Time Resolved Fluorescence (HTRF) Antagonist Assay Procedure
IC50data was obtained by the following procedure:
1321N1 human astrocytoma cells stably expressing human recombinant GPR65 (1321N1-hrGPR65 cells, EuroscreenFast) were cultured according to the vendor's instructions.
Compounds were tested for their ability to antagonise GPR65, through measuring the concentration of cytoplasmic cAMP following treatment of the cells at a pH of 7.2 to activate GPR65 signalling and addition of the compound to be tested. The extent to which the expected rise in cAMP concentration upon GPR65 activation was suppressed by the added compound is indicative of its potency. The assay was carried out according to EuroscreenFast assay Methodology as follows.
On the day of the assay, test compounds were added to 384-well, low volume, white microtiter plates by acoustic dispensing. KRH buffer (5 mM KCl, 1.25 mM MgSO4, 124 mM NaCl, 25 mM HEPES, 13.3 mM Glucose, 1.25 mM KH2PO4 and 1.45 mM CaCl2) was adjusted to pH 6.5, pH 7.6 and pH 8.4 by adding NaOH. 1321N1-hGPR65 cells were rapidly thawed and diluted in KRH, pH 7.6 prior to centrifugation at 300×g for 5 min and resuspension in assay buffer (KRH, pH 7.6, supplemented with 1 mM 3-isobutyl-1-methylxanthine (IBMX) and 200 μM ethylenediaminetetraacetic acid (EDTA)). Cells were added to assay plates at a density of 2,000 cells per well in a volume of […]. Assay plates were briefly centrifuged at 100×g and then incubated at room temperature for 30 min. Cells were stimulated by the addition of 5 μL KRH, pH 6.5, to achieve an assay pH of 7.2, while control wells received […] KRH, pH 8.4 to achieve an assay pH of 7.9. Assay plates were briefly centrifuged at 100×g and then incubated at room temperature for 30 min.
Accumulation of cAMP was detected by cAMP HTRF kit (Cisbio). d2-labeled cAMP and cryptate-labeled anti-cAMP antibody in Lysis and Detection Buffer (Cisbio) were added to assay plates, and the plates were incubated at room temperature for 1 h. HTRF measurements were performed using a Pherastar FSX instrument. Acceptor and donor emission signals were measured at 665 nm and 620 nm, respectively, and HTRF ratios were calculated as signal665 nm/signal620 nm×104. Data were normalised to high and low control values and fitted with 4-parameter logistic regression to determine hGPR65 IC50 values for the test compounds, which are shown in Table 1.

T1 sequence (Q8IYL9 whole entry): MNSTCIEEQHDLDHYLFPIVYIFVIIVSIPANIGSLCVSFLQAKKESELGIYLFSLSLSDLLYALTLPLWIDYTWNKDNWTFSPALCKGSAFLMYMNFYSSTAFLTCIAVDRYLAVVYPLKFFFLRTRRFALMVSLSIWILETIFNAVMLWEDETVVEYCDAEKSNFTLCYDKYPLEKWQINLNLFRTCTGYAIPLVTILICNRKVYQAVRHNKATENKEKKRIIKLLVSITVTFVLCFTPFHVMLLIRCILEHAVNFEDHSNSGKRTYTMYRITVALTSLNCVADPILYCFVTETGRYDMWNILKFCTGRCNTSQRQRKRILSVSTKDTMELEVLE

Row | Compound | IC50 [nM]
1 | CN(C(=O)N1[C@H]2CC[C@@H]1c1n[nH]c(=O)cc1C2)c1cc(Cl)c(-c2ccc(OCC(F)(F)F)nc2)cc1F [Compound 9, (6S,9R)-N-(5-chloro-2-fluoro-4-(6-(2,2,2-trifluoroethoxy)pyridin-3-yl)phenyl)-N-methyl-3-oxo-3,5,6,7,8,9-hexahydro-2H-6,9-epiminocyclohepta[c]pyridazine-10-carboxamide] | 500 to 5000
2 | O=C(Nc1cc(Cl)c(-c2ccc(OC3CCN(CC(F)(F)F)C3)nc2)cc1F)N1[C@H]2CC[C@@H]1c1c[nH]c(=O)cc1C2 (stereo partly drawn) [Compound 27, (6S,9R)-N-(5-chloro-2-fluoro-4-(6-((1-(2,2,2-trifluoroethyl)pyrrolidin-3-yl)oxy)pyridin-3-yl)phenyl)-3-oxo-3,5,6,7,8,9-hexahydro-2H-6,9-epiminocyclohepta[c]pyridine-10-carboxamide] | < 500
3 | O=C(Nc1cc(Cl)c(-c2ccc(OCC3CCOC3)nc2)cc1F)N1[C@H]2CC[C@@H]1c1n[nH]c(=O)cc1C2 (stereo partly drawn) [Compound 41, (6S,9R)-N-(5-chloro-2-fluoro-4-(6-((tetrahydrofuran-3-yl)methoxy)pyridin-3-yl)phenyl)-3-oxo-3,5,6,7,8,9-hexahydro-2H-6,9-epiminocyclohepta[c]pyridazine-10-carboxamide] | < 500
4 | O=C(Nc1cc(Cl)c(-c2ccc(OCC(F)(F)F)nc2)cc1F)N1C2CCC1C(F)(F)c1c2ccnc1F (racemic) [Compound 70, (±)-N-(5-Chloro-2-fluoro-4-(6-(2,2,2-trifluoroethoxy)pyridin-3-yl)phenyl)-1,9,9-trifluoro-6,7,8,9-tetrahydro-5H-5,8-epiminocyclohepta[c]pyridine-10-carboxamide] | < 500
5 | N#Cc1cc(NC(=O)N2[C@H]3CC[C@@H]2c2ccnc(F)c2C3)c(F)cc1Cl [Compound 45, (5R,8S)-N-(4-chloro-5-cyano-2-fluorophenyl)-1-fluoro-6,7,8,9-tetrahydro-5H-5,8-epiminocyclohepta[c]pyridine-10-carboxamide] | < 500
6 | O=C(Nc1cc(Cl)c(-c2cnc(OCC(F)(F)F)c(F)c2)cc1F)N1[C@H]2CC[C@@H]1c1c[nH]c(=O)cc1C2 [Compound 11, (6S,9R)-N-(5-chloro-2-fluoro-4-(5-fluoro-6-(2,2,2-trifluoroethoxy)pyridin-3-yl)phenyl)-3-oxo-3,5,6,7,8,9-hexahydro-2H-6,9-epiminocyclohepta[c]pyridine-10-carboxamide] | < 500
7 | O=C(Nc1cc(Cl)c(C(F)(F)F)cc1F)N1[C@H]2CC[C@@H]1c1cc[n+]([O-])cc1C2 [Compound 67, (5R,8S)-10-((5-chloro-2-fluoro-4-(trifluoromethyl)phenyl)carbamoyl)-6,7,8,9-tetrahydro-5H-5,8-epiminocyclohepta[c]pyridine 2-oxide] | < 500
8 | O=C(Nc1cc(Cl)c(COc2ccccc2)cc1F)N1[C@H]2CC[C@@H]1c1c[nH]c(=O)cc1C2 [Compound 53, (6S,9R)-N-(5-chloro-2-fluoro-4-(phenoxymethyl)phenyl)-3-oxo-3,5,6,7,8,9-hexahydro-2H-6,9-epiminocyclohepta[c]pyridine-10-carboxamide] | < 500
9 | O=C(Nc1cc(Cl)c(-c2ccc3nonc3c2)cn1)N1[C@@H]2CC[C@H]1C(F)(F)c1c2ccnc1F [Compound 74, (5R,8S)-N-(5-(Benzo[c][1,2,5]oxadiazol-5-yl)-4-chloropyridin-2-yl)-1,9,9-trifluoro-6,7,8,9-tetrahydro-5H-5,8-epiminocyclohepta[c]pyridine-10-carboxamide] | < 500
10 | O=C(Nc1cc(Cl)c(-c2ccc(OCC(F)(F)F)nn2)cc1F)N1[C@H]2CC[C@@H]1c1c[nH]c(=O)cc1C2 [Compound 12, (6S,9R)-N-(5-chloro-2-fluoro-4-(6-(2,2,2-trifluoroethoxy)pyridazin-3-yl)phenyl)-3-oxo-3,5,6,7,8,9-hexahydro-2H-6,9-epiminocyclohepta[c]pyridine-10-carboxamide] | < 500
11 | O=C(Nc1cc(Cl)c(-c2ccc(Nc3cc(Cl)c(-c4ccc(OCC(F)(F)F)nc4)cc3F)nc2)cc1F)N1[C@H]2CC[C@@H]1c1n[nH]c(=O)cc1C2 [Compound 92, (6S,9R)-N-(5-Chloro-4-(6-((5-chloro-2-fluoro-4-(6-(2,2,2-trifluoroethoxy)pyridin-3-yl)phenyl)amino)pyridin-3-yl)-2-fluorophenyl)-3-oxo-3,5,6,7,8,9-hexahydro-2H-6,9-epiminocyclohepta[c]pyridazine-10-carboxamide] | < 500
12 | O=C(Nc1cc(Cl)c(-c2ccc(OCC3(F)CC3)nc2)cc1F)N1[C@H]2CC[C@@H]1c1n[nH]c(=O)cc1C2 [Compound 86, (6S,9R)-N-(5-Chloro-2-fluoro-4-(6-((1-fluorocyclopropyl)methoxy)pyridin-3-yl)phenyl)-3-oxo-3,5,6,7,8,9-hexahydro-2H-6,9-epiminocyclohepta[c]pyridazine-10-carboxamide] | < 500
13 | O=C(Nc1cc(Cl)c(-c2ccc3nonc3c2)cn1)N1[C@@H]2CC[C@H]1c1ccnc(F)c1[C@H]2F [Compound 75, (5S,8R,9R)-N-(5-(Benzo[c][1,2,5]oxadiazol-5-yl)-4-chloropyridin-2-yl)-1,9-difluoro-6,7,8,9-tetrahydro-5H-5,8-epiminocyclohepta[c]pyridine-10-carboxamide] | < 500
14 | O=C(Nc1cc(Cl)c(-c2ccc(OCC34COC(C3)C4)nc2)cc1F)N1[C@H]2CC[C@@H]1c1n[nH]c(=O)cc1C2 [Compound 1, (6S,9R)-N-(4-(6-((2-oxabicyclo[2.1.1]hexan-4-yl)methoxy)pyridin-3-yl)-5-chloro-2-fluorophenyl)-3-oxo-3,5,6,7,8,9-hexahydro-2H-6,9-epiminocyclohepta[c]pyridazine-10-carboxamide] | < 500
15 | Cc1nc2cc(-c3cc(F)c(NC(=O)N4[C@H]5CC[C@@H]4c4c[nH]c(=O)cc4C5)cc3Cl)ccc2n1C [Compound 19, (6S,9R)-N-(5-chloro-4-(1,2-dimethyl-1H-benzo[d]imidazol-5-yl)-2-fluorophenyl)-3-oxo-3,5,6,7,8,9-hexahydro-2H-6,9-epiminocyclohepta[c]pyridine-10-carboxamide] | 500 to 5000
16 | O=C(Nc1cc(Cl)c(C(F)(F)F)cn1)N1C2CCC1[C@H](F)c1c2ccnc1F (mixture of isomers) [Compound 33, (±)(9S)-N-(4-chloro-5-(trifluoromethyl)pyridin-2-yl)-1,9-difluoro-6,7,8,9-tetrahydro-5H-5,8-epiminocyclohepta[c]pyridine-10-carboxamide] | < 500
17 | O=C(Nc1cc(Cl)c(-c2ccc(OC[C@@H]3CC3(F)F)nc2)cc1F)N1[C@H]2CC[C@@H]1c1n[nH]c(=O)cc1C2 [Compound 83, (6S,9R)-N-(5-Chloro-4-(6-(((S)-2,2-difluorocyclopropyl)methoxy)pyridin-3-yl)-2-fluorophenyl)-3-oxo-3,5,6,7,8,9-hexahydro-2H-6,9-epiminocyclohepta[c]pyridazine-10-carboxamide] | < 500
18 | Cc1cc(NC(=O)N2[C@H]3CC[C@@H]2c2c[nH]c(=O)cc2C3)c(F)cc1-c1ccc2nsnc2c1 [Compound 17, (6S,9R)-N-(4-(benzo[c][1,2,5]thiadiazol-5-yl)-2-fluoro-5-methylphenyl)-3-oxo-3,5,6,7,8,9-hexahydro-2H-6,9-epiminocyclohepta[c]pyridine-10-carboxamide] | < 500
